From article PMC6904773, “Structural and functional characterization of buffalo oviduct-specific glycoprotein (OVGP1) expressed during estrous cycle” (Bioscience Reports, 2019)

Columns and labels:
[1] = target: T1, recombinant OVGP1 (buffalo oviduct-specific glycoprotein) (Bubalus bubalis, UniProt A4Z8Y1); experiment: intrinsic Trp fluorescence quenching (ex […] nm); format: binding; settings: 10 uM protein, 5-15 mM ligand, 25 mM phosphate buffered saline, pH 7.2, 298 K
T1 construct: gene OVN; recombinant from Escherichia coli, ~58 kDa
T1 sequence (A4Z8Y1 22-540): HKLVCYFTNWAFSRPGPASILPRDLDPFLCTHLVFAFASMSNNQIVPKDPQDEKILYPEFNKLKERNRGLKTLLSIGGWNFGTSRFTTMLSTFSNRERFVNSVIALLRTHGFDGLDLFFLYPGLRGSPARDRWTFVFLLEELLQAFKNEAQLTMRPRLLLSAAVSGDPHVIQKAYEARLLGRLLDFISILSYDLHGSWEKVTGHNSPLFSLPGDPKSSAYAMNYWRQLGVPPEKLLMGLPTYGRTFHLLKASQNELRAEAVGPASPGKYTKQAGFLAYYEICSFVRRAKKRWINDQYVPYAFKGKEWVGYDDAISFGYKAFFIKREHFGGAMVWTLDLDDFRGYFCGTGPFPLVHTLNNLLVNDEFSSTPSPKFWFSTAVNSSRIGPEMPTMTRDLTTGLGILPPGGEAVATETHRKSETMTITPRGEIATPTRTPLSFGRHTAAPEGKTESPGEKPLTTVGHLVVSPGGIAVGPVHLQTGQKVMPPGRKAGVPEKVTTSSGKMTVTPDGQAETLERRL

[2] = target: T2, native OVGP1 (buffalo oviduct-specific glycoprotein) (Bubalus bubalis, UniProt A4Z8Y1); experiment: intrinsic Trp fluorescence quenching (ex […] nm); format: binding; settings: 10 uM protein, 5-15 mM ligand, 25 mM phosphate buffered saline, pH 7.2, 298 K
T2 construct: gene OVN; native, purified to homogeneity from buffalo oviducts; ~55-90 kDa; glycosylated; secreted mature form (precursor 540 aa, signal peptide 21 aa); monomer
T2 sequence (A4Z8Y1 22-540): T1 sequence (A4Z8Y1 22-540)

SMILES | intrinsic Trp fluorescence quenching (ex 280 nm) [1] | intrinsic Trp fluorescence quenching (ex 280 nm) [2]
OC[C@H]1OC(O)[C@@H](O)[C@@H](O)[C@@H]1O (stereo partly drawn) [mannose] | monosaccharides i.e. GlcNAc, GalNAc and mannose complexes of both native and recombinant OVGP1 | monosaccharides i.e. GlcNAc, GalNAc and mannose complexes of both native and recombinant OVGP1
CC(=O)N[C@H]1C(O)O[C@H](CO)[C@@H](O)[C@@H]1O (stereo partly drawn) [GlcNAc] | fluorescence intensity of both native and recombinant OVGP1 decreased with increasing concentrations of ligands | fluorescence intensity of both native and recombinant OVGP1 decreased with increasing concentrations of ligands
CC(=O)N[C@H]1C(O)O[C@H](CO)[C@H](O)[C@@H]1O (stereo partly drawn) [GalNAc] | monosaccharides i.e. GlcNAc, GalNAc and mannose complexes of both native and recombinant OVGP1 | monosaccharides i.e. GlcNAc, GalNAc and mannose complexes of both native and recombinant OVGP1
